Test results as given in article PMC7457533, “Characterization of thrombin/factor Xa inhibitors in Rhizoma Chuanxiong through UPLC-MS-based multivariate statistical analysis” (Chinese Medicine, 2020).

Molecular target: T1, thrombin (THR) (Homo sapiens, UniProt P00734)
T1 construct: gene F2
Test: capillary electrophoresis immobilized enzyme microreactor, S-2238; percent inhibition at […]
Assay type: biochemical
Details: read-out: Inhibition percentage (%)

Row | Compound | inhibition at 500 µM [%]
1 | CCCCC1OC(=O)C2=C1CCC=C2 (centres unmarked) [a, Senkyunolide A] | 41.9 ± 1.84
2 | CCC/C=C1\OC(=O)C2=C1CCC=C2 [d, Z-ligustilide] | 36.9 ± 2.37
